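How tested: cells in 96-well plates exposed to compound for 48 hours at five concentrations. At the GI50, growth is halved.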 The source made the active and inactive calls. Rule as the data show it: active = GI50 up to about 1.1 µM and inactive = higher.
Tests used:
Assay in all cases: growth of human tumour cells (NCI), 48 h
[1] = tested on: HCT-116
[2] = tested on: HL-60
[3] = tested on: CAKI-1
[4] = tested on: UO-31
[5] = tested on: LOX IMVI
[6] = tested on: HOP-62
[7] = tested on: OVCAR-3
[8] = tested on: SNB-19
[9] = tested on: COLO 205
[10] = tested on: MCF7
[11] = tested on: NCI-H460
[12] = tested on: SK-MEL-5
[13] = tested on: HOP-92
[14] = tested on: K562
[15] = tested on: A498
[16] = tested on: HT-29
[17] = tested on: OVCAR-4
[18] = tested on: IGROV-1
[19] = tested on: EKVX
[20] = tested on: Malme-3M

| SMILES | GI50 [1] | GI50 [2] | GI50 [3] | GI50 [4] | GI50 [5] | GI50 [6] | GI50 [7] | GI50 [8] | GI50 [9] | GI50 [10] | GI50 [11] | GI50 [12] | GI50 [13] | GI50 [14] | GI50 [15] | GI50 [16] | GI50 [17] | GI50 [18] | GI50 [19] | GI50 [20] |
| --- | --- | --- | --- | --- | --- | --- | --- | --- | --- | --- | --- | --- | --- | --- | --- | --- | --- | --- | --- | --- |
| c1ccc(OCc2nnc(CCCCCCCCc3nnc(COc4ccccc4)o3)o2)cc1 | 63.8 µM (inactive) | > 100 µM (inactive) | > 100 µM (inactive) | > 100 µM (inactive) | > 100 µM (inactive) | 97.3 µM (inactive) | 27.8 µM (inactive) | 73.8 µM (inactive) | > 100 µM (inactive) | > 100 µM (inactive) | > 100 µM (inactive) | > 100 µM (inactive) | 55.6 µM (inactive) | > 100 µM (inactive) | > 100 µM (inactive) | > 100 µM (inactive) | > 100 µM (inactive) | > 100 µM (inactive) | > 100 µM (inactive) |  |
| CN(C)CCNC(=O)c1cc(Cl)cc2cc3ccccc3nc12 | 0.445 µM (active) | 0.578 µM (active) |  | 1.02 µM (active) | 0.597 µM (active) | 1.62 µM (inactive) | 4.71 µM (inactive) | 1.33 µM (inactive) | 0.433 µM (active) | 0.757 µM (active) | 0.311 µM (active) | 1.31 µM (inactive) |  | 1.01 µM (active) | 0.179 µM (active) | 0.455 µM (active) | 2.2 µM (inactive) | 1.14 µM (inactive) | 1.43 µM (inactive) | 5.73 µM (inactive) |
| Cc1ccc2c3c1[C@@H]1O[C@@H]1c1cccc(c1-3)[C@@H]1O[C@H]21 | 5.24 µM (inactive) |  | 16.4 µM (inactive) | 12 µM (inactive) | 2.4 µM (inactive) | 15.7 µM (inactive) |  | 19.8 µM (inactive) | 15.8 µM (inactive) | 4.66 µM (inactive) |  | 15 µM (inactive) | 18.1 µM (inactive) | 4.29 µM (inactive) | 19.1 µM (inactive) | 6.07 µM (inactive) | 17.5 µM (inactive) |  | 16.1 µM (inactive) | 15.3 µM (inactive) |
| C=C1C[C@@H](O)C[C@@]2(C)C[C@@H]3OC(=O)C(=C)[C@@H]3C[C@H]12 | 3.43 µM (inactive) | 1.89 µM (inactive) | 4.22 µM (inactive) | 4.85 µM (inactive) | 4.46 µM (inactive) | 15.4 µM (inactive) | 11.2 µM (inactive) | 5.21 µM (inactive) | 1.61 µM (inactive) | 3.78 µM (inactive) | 16.5 µM (inactive) | 3.51 µM (inactive) | 13.1 µM (inactive) | 4.19 µM (inactive) | 12.4 µM (inactive) | 2.94 µM (inactive) | 15.2 µM (inactive) | 11.2 µM (inactive) |  | 3.37 µM (inactive) |
| CN(C)C(=O)C(F)(F)C(c1ccc(Br)cc1)C1C(=O)N(C)C(=O)N(C)C1=O (stereo unspecified) | > 100 µM (inactive) |  | > 100 µM (inactive) | > 100 µM (inactive) | > 100 µM (inactive) | > 100 µM (inactive) | > 100 µM (inactive) | > 100 µM (inactive) | > 100 µM (inactive) | > 100 µM (inactive) | > 100 µM (inactive) | > 100 µM (inactive) | > 100 µM (inactive) | > 100 µM (inactive) | > 100 µM (inactive) |  | > 100 µM (inactive) |  | > 100 µM (inactive) |  |
| COc1ccc(/C=C2\C[C@H]3[C@@H]4CCC5=C/C(=N/O)CC[C@]5(C)[C@H]4CC[C@]3(C)\C2=N\O)cc1OC | 6.56 µM (inactive) | 4.72 µM (inactive) | 8.43 µM (inactive) | 4.5 µM (inactive) | 18.8 µM (inactive) | 40.6 µM (inactive) | 9.1 µM (inactive) | 52.6 µM (inactive) |  | 6.87 µM (inactive) | 3.61 µM (inactive) | 2.75 µM (inactive) | 7.85 µM (inactive) | 6.92 µM (inactive) | 33.1 µM (inactive) | 7.66 µM (inactive) | 11 µM (inactive) | 47.4 µM (inactive) | 3.36 µM (inactive) | 43.5 µM (inactive) |
| C=CCc1cccc2cc(C(=O)Nc3ccc(C)cc3)c(=N)oc12 | > 100 µM (inactive) | > 100 µM (inactive) | > 100 µM (inactive) |  | > 100 µM (inactive) | > 100 µM (inactive) | > 100 µM (inactive) | > 100 µM (inactive) | > 100 µM (inactive) | > 100 µM (inactive) | > 100 µM (inactive) | > 100 µM (inactive) | > 100 µM (inactive) | > 100 µM (inactive) | > 100 µM (inactive) | > 100 µM (inactive) | > 100 µM (inactive) | > 100 µM (inactive) | > 100 µM (inactive) | > 100 µM (inactive) |
| CCCCCCSc1nc(N)nc2nc[nH]c12 | 35.2 µM (inactive) | 19.6 µM (inactive) |  | 24.3 µM (inactive) | 26.1 µM (inactive) | 34.5 µM (inactive) | 40.2 µM (inactive) | 39.4 µM (inactive) | 38.9 µM (inactive) | 30.5 µM (inactive) | 39.3 µM (inactive) | 20.3 µM (inactive) | 28.8 µM (inactive) | 32 µM (inactive) | 26.9 µM (inactive) | 34.4 µM (inactive) | 52.7 µM (inactive) | 30.5 µM (inactive) | 60.1 µM (inactive) | 35.7 µM (inactive) |
| CCOC(=O)C1(C(F)(F)F)N=C(CC)OC(N2CCOCC2)=N1 (stereo unspecified) | > 100 µM (inactive) | > 100 µM (inactive) | > 100 µM (inactive) | > 100 µM (inactive) | > 100 µM (inactive) |  | > 100 µM (inactive) | > 100 µM (inactive) | > 100 µM (inactive) | > 100 µM (inactive) | > 100 µM (inactive) | > 100 µM (inactive) | > 100 µM (inactive) | > 100 µM (inactive) |  | > 100 µM (inactive) | > 100 µM (inactive) | > 100 µM (inactive) | > 100 µM (inactive) |  |
| CN(C1=NCCO1)c1cccc2ccccc12 | > 10 µM (inactive) | > 10 µM (inactive) | > 10 µM (inactive) | > 10 µM (inactive) | > 10 µM (inactive) | > 10 µM (inactive) | > 10 µM (inactive) | > 10 µM (inactive) | > 10 µM (inactive) | > 10 µM (inactive) | > 10 µM (inactive) | > 10 µM (inactive) |  | > 10 µM (inactive) | > 10 µM (inactive) | > 10 µM (inactive) | > 10 µM (inactive) | > 10 µM (inactive) | > 10 µM (inactive) | > 10 µM (inactive) |
| O=C(O)C(O)Cc1ccccn1 (stereo unspecified) |  | > 100 µM (inactive) | > 100 µM (inactive) | > 100 µM (inactive) | > 100 µM (inactive) | > 100 µM (inactive) | > 100 µM (inactive) | > 100 µM (inactive) | > 100 µM (inactive) | > 100 µM (inactive) | > 100 µM (inactive) | > 100 µM (inactive) | > 100 µM (inactive) | > 100 µM (inactive) | > 100 µM (inactive) | > 100 µM (inactive) | > 100 µM (inactive) | > 100 µM (inactive) | > 100 µM (inactive) | > 100 µM (inactive) |
| Cc1cc(O)c2c(c1O)C(=O)C13C(=C(O)C4C(O)C1C1C(O)C3C(O)=C3C(=O)c5c(O)cc(C)c(O)c5C(=O)C341)C2=O (stereo unspecified) | 0.0342 µM (active) |  | 0.209 µM (active) | 0.0392 µM (active) | 0.106 µM (active) | 0.207 µM (active) | 3.56 µM (inactive) | 0.668 µM (active) | 0.0276 µM (active) | 0.0577 µM (active) | 0.0348 µM (active) | 0.15 µM (active) | 0.24 µM (active) | 0.0322 µM (active) | 0.0362 µM (active) | 0.0451 µM (active) | 0.385 µM (active) | 0.137 µM (active) | 0.0845 µM (active) | 0.0428 µM (active) |
| Cc1cc(=O)nc(S(=O)(=O)NC(=S)Nc2ccc(Cl)cc2)[nH]1 | > 100 µM (inactive) | > 100 µM (inactive) | 77.8 µM (inactive) | > 100 µM (inactive) |  | > 100 µM (inactive) | > 100 µM (inactive) | > 100 µM (inactive) | > 100 µM (inactive) | > 100 µM (inactive) | > 100 µM (inactive) | > 100 µM (inactive) | > 100 µM (inactive) |  | > 100 µM (inactive) | > 100 µM (inactive) | > 100 µM (inactive) | > 100 µM (inactive) | 39.5 µM (inactive) | > 100 µM (inactive) |
| O=C(O)c1ccc(C(=O)O)c2c(C(=O)O)ccc(C(=O)O)c12 | > 100 µM (inactive) |  | > 100 µM (inactive) | > 100 µM (inactive) | > 100 µM (inactive) | > 100 µM (inactive) | > 100 µM (inactive) | > 100 µM (inactive) | > 100 µM (inactive) | > 100 µM (inactive) | > 100 µM (inactive) | > 100 µM (inactive) | > 100 µM (inactive) | > 100 µM (inactive) | > 100 µM (inactive) | > 100 µM (inactive) | > 100 µM (inactive) | > 100 µM (inactive) | > 100 µM (inactive) | > 100 µM (inactive) |
| CC=C/C=C/[C@@H]1O[C@](O)([C@H](CC)C(=O)NC/C=C/C=C(\C)[C@@H](OC)[C@@H](C)[C@@H]2O[C@H](/C=C/C=C/C=C(\C)C(=O)c3c(O)cc[nH]c3=O)[C@H](O)[C@@H]2O)[C@H](O)[C@H](O)C1(C)C |  | 93.5 µM (inactive) |  | > 100 µM (inactive) |  | > 100 µM (inactive) | > 100 µM (inactive) | > 100 µM (inactive) |  | > 100 µM (inactive) | 92.7 µM (inactive) |  | > 100 µM (inactive) | > 100 µM (inactive) | > 100 µM (inactive) | > 100 µM (inactive) | > 100 µM (inactive) | > 100 µM (inactive) | > 100 µM (inactive) | 94.2 µM (inactive) |

Source: ChEMBL document CHEMBL1201862, “PubChem BioAssay data set” (2004)
